In ChEMBL document CHEMBL1124710, “Studies on Ca2+ channel antagonists. A 2-diazo-3,3,3-trifluoropropionamide derivative related to verapamil as a potential photoaffinity probe” (J Med Chem, 1990):

Tests used:
[1] = species: Rattus norvegicus; test: Effective concentration for negative inotropic effect in rat myocardial ventricular strips; type: functional; conditions: Cardiac ventricle
[2] = Binding affinity to displace 0.4 nM of [3H]- gallopamil in rat myocardial membranes; type: cell membranes, Myocardium, Membrane

Row | EC50 [1] [nM] | Ki [2] [nM] | Structure (SMILES)
1 | 105 | 37.6 | COc1ccc(C(C#N)(CCCN(C)CCc2ccc(N(C)C(=O)C([N+]#N)C(F)(F)F)cc2)C(C)C)cc1OC (centres undefined)
2 | 21.8 | 15.5 | COc1ccc(CCN(C)CCCC(C#N)(c2cc(OC)c(OC)c(OC)c2)C(C)C)cc1OC (centres undefined) [GALLOPAMIL]
